Measurements taken from PMC5126700 (Scientific Reports, 2016).

What was measured:
ERp57 [1] = molecular target: T1, ERp57 (Homo sapiens, UniProt P30101); test: Isothermal Titration Calorimetry of ERp57 with silibinin; type: binding; details: Figure 5b, ERp57 5 μM, silibinin 50 μM
T1 construct: we performed the isothermal titration calorimetry of the whole protein and its two mutants; made in house; host or cells: E. coli BL21 (pET21)
T1 sequence (P30101 25-505): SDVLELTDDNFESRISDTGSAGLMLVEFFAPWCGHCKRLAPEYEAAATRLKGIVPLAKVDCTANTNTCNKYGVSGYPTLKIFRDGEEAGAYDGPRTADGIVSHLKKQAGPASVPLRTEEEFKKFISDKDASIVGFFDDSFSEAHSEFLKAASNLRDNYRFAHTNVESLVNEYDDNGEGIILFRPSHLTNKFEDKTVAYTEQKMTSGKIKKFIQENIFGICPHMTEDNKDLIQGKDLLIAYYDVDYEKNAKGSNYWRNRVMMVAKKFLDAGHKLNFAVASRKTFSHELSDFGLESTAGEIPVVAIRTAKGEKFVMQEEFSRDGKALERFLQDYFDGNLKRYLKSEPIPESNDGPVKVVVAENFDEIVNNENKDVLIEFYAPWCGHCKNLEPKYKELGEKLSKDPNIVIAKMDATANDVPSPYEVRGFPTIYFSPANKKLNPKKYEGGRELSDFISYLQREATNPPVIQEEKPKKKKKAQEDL
Procedure: Both the protein and the ligands were in the same buffer (see Materials and Methods). […] (Lower panel) Integrated heats of reaction plotted against the molar ratio of total ligand concentration to total protein concentration. […] The integrated heat of reaction is plotted against the molar ratio of total ligand concentration to total protein concentration.
ITC experiments were performed at 25 °C using a MicroCal ITC200 microcalorimeter (MicroCal Inc., Northampton, MA, USA). […] Samples were centrifuged before the experiments to eliminate possible aggregates. Protein and ligand solutions were degassed before use. Titrations were performed at 25 °C. The protein solution was placed in the sample cell, and each ligand solution was loaded into the syringe injector. The titrations involved 19 injections of 2 μL at 180 s intervals. The syringe stirring speed was set at 1,000 rpm. The reaction was very fast, as shown by the immediate appearance of an endothermic sharp peak following the addition of ligand to the protein and its deletion mutants solution in the microcalorimetric titration experiment. Reference titrations of ligand into buffer were used to correct for heats of dilution. […] The values of ΔH were measured for each titration, and fitting the binding isotherms with a one-site binding model yielded the values of the association constant (Ka). […]

ERp57 [2] = details: cited from earlier work

COc1cc(C2Oc3cc([C@H]4Oc5cc(O)cc(O)c5C(=O)[C@@H]4O)ccc3OC2CO)ccc1O (stereo partly drawn) [silibinin]
n (best fit) (ERp57 [1]): 0.776 (±0.0183) sites/mole
Kd (ERp57 [1]; read-out: Ka (best fit) (converted)): 483 nM
affinity for ERp57 compared to calcitriol (ERp57 [2]): at least two orders of magnitude lower
